Experimental data published in article PMC4583449, “Characterisation of (R)-2-(2-Fluorobiphenyl-4-yl)-N-(3-Methylpyridin-2-yl)Propanamide as a Dual Fatty Acid Amide Hydrolase: Cyclooxygenase Inhibitor” (PLoS ONE, 2015).
Read-outs that look alike come from different tables or passages of the source.

Legend:
RAW 264.7 cells [1] = experiment: [3H]AEA hydrolysis by intact RAW 264.7 cells; assay type: cell-based, mouse; conditions: LPS + INF-γ-treated cells; 100 nM [3H]AEA, 60 min; URB597 1 μM, flurbiprofen and (R)-Flu-AM1 10 μM
rat brain FAAH = target: T1, rat brain FAAH (Rattus norvegicus, UniProt P97612); experiment: [3H]AEA hydrolysis in rat brain homogenates; assay type: biochemical; conditions: current authors, unpublished data; read-out: IC50 inhibition of [3H]AEA hydrolysis in rat brain homogenates
T1 construct: the racemate was studied in rat brain homogenates, whereas mouse brain homogenates were used here; from tissue; host or cells: rat brain homogenates
T1 sequence (P97612 1-579): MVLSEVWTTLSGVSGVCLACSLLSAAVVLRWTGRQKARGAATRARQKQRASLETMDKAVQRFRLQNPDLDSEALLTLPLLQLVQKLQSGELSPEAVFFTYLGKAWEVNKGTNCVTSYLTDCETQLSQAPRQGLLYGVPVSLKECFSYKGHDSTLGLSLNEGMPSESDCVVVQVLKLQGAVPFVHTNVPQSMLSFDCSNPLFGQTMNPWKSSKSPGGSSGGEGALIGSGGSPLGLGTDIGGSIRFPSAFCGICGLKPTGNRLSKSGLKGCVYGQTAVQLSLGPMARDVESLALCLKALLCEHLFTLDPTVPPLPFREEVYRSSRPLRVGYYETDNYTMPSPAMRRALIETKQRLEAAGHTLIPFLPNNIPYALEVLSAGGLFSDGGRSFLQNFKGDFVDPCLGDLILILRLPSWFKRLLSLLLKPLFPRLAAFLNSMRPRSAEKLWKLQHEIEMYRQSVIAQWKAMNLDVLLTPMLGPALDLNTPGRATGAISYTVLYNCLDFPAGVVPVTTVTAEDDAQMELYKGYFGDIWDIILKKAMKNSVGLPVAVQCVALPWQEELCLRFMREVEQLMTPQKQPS

RAW 264.7 cells [2] = experiment: Lipid profile (prostaglandins, 2-AG, AEA and related lipids) of RAW 264.7 cell extracts, UPLC-MS/MS; assay type: cell-based, mouse; conditions: 30 min
mouse brain FAAH = target: T2, mouse brain FAAH (Mus musculus, UniProt O08914); experiment: FAAH assay, [3H]AEA hydrolysis in mouse brain homogenates; assay type: biochemical
T2 construct: Brains from male B6CBAF1/J mice, stored at -80°C, were thawed, weighed and homogenized in cold buffer; from tissue; host or cells: brain of male B6CBAF1/J mice (washed membrane pellet homogenate)
T2 sequence (O08914 1-579): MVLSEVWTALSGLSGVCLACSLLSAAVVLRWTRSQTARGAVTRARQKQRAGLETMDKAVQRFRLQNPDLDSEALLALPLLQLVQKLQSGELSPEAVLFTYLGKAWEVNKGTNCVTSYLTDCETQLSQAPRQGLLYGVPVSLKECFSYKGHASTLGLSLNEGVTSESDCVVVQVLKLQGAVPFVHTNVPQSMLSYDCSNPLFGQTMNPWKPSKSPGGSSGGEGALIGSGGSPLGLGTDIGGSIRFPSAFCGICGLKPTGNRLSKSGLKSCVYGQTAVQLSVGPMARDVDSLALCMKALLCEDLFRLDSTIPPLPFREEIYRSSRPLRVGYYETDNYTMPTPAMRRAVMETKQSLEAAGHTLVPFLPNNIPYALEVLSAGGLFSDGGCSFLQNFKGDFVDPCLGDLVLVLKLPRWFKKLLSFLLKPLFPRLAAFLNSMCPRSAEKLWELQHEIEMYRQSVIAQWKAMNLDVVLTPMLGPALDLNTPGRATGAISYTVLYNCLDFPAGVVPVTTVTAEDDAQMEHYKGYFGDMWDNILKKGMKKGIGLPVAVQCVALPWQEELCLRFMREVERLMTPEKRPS
Procedure: Brains from male B6CBAF1/J mice, stored at -80°C, were thawed, weighed and homogenized in cold buffer (20 mM HEPES, 1 mM MgCl2 pH 7.0). Homogenates were centrifuged (35,000 g at 4°C for 20 min) before the pellet was resuspended in cold homogenization buffer. Centrifugation and resuspension was repeated twice. The suspension was incubated at 37°C for 15 min to degrade any endogenous substrate able to interfere with the FAAH assay. After centrifugation (35,000 g at 4°C for 20 min), the pellet was resuspended in cold buffer (50 mM Tris-HCl, 1mM EDTA, 3 mM MgCl2, pH 7.4). The protein concentration was determined according to the Bradford assay after which the samples were frozen in aliquots at -80°C. Ethical permission for the animal experiments was obtained from the local animal research ethical committee (Umeå Ethical Committee for Animal Research, Umeå, Sweden). FAAH was assayed using the method of Boldrup et al., whereby homogenates (0.3 μg protein / assay) in assay buffer (10 mM Tris-HCl, 1mM EDTA, pH 7.4), test compounds and substrate ([^3H]AEA in 10 mM Tris-HCl, 1mM EDTA, pH 7.4 containing 10 mg/ml fatty acid-free bovine serum, assay concentration 0.5 μM unless otherwise stated) were incubated for 10 min at 37°C. Thereafter, 400 μL activated charcoal (80 μL activated charcoal + 320 μL 0.5 M HCl) was added and the samples were placed on ice and centrifuged at 2500 rpm for 10 min. Aliquots (200 μL) of the supernatant was analyzed for tritium content by liquid scintillation spectroscopy with quench correction.

[3] = LPS + IFNγ 24 h, URB597 1 μM, flurbiprofen 10 μM, (R)-Flu-AM1 10 μM, median (range), n = 5–6
[4] = Treatment None (unstimulated), URB597 1 μM, flurbiprofen 10 μM, (R)-Flu-AM1 10 μM, median (range), n = 5–6

Cc1cccnc1NC(=O)[C@H](C)c1ccc(-c2ccccc2)c(F)c1 [(R)-Flu-AM1, (R)-2-(2-Fluorobiphenyl-4-yl)-N-(3-Methylpyridin-2-yl)Propanamide]
Effect on hydrolysis of exogenous [3H]AEA by intact cells (RAW 264.7 cells [1]): would not be expected, and this was found to be the case
IC50 (rat brain FAAH): 0.74 µM
Effect on basal and LPS + INF-γ-stimulated PGD2 and PGE2 production (RAW 264.7 cells [2]; 10 μM): almost complete inhibition
Effect upon linoleic acid-derived oxylipins (RAW 264.7 cells [2]; 10 μM): No significant effects
Effect on levels of 2-AG in the cell extracts (RAW 264.7 cells [2]; 10 μM, unstimulated and LPS + INF-γ-treated): not affected
2-AG level relative to vehicle None median (RAW 264.7 cells [2]; [3]): 0.81 (0.64–0.98)
9,10,13-TriHOME level relative to vehicle None median (RAW 264.7 cells [2]; [3]): 1.18 (0.90–1.49)
9,10-DiHOME level relative to vehicle None median (RAW 264.7 cells [2]; [3]): 0.82 (0.65–1.09)
9,12,13-TriHOME level relative to vehicle None median (RAW 264.7 cells [2]; [3]): 1.22 (0.79–1.60)
9-HODE level relative to vehicle None median (RAW 264.7 cells [2]; [3]): 1.06 (0.50–1.64)
11-HETE level relative to vehicle None median (RAW 264.7 cells [2]; [3]): 2.29 (0.92–7.87)
12(13)-EpOME level relative to vehicle None median (RAW 264.7 cells [2]; [3]): 1.02 (0.53–1.98)
12(S)-HEPE level relative to vehicle None median (RAW 264.7 cells [2]; [3]): 0.27 (0–0.74)
12,13-DiHOME level relative to vehicle None median (RAW 264.7 cells [2]; [3]): 0.93 (0.76–1.04)
12-HETE level relative to vehicle None median (RAW 264.7 cells [2]; [3]): 0.32 (0.10–1.05)
13-HODE level relative to vehicle None median (RAW 264.7 cells [2]; [3]): 1.21 (0.55–1.75)
13-oxo-ODE level relative to vehicle None median (RAW 264.7 cells [2]; [3]): 1.49 (0.31–2.85)
15-HETE level relative to vehicle None median (RAW 264.7 cells [2]; [3]): 1.33 (0.67–3.37)
AEA level relative to vehicle None median (RAW 264.7 cells [2]; [3]): 1.01 (0.37–1.16)
LEA level relative to vehicle None median (RAW 264.7 cells [2]; [3]): 1.13 (0.33–1.60)
OEA level relative to vehicle None median (RAW 264.7 cells [2]; [3]): 1.03 (0.87–1.22)
PEA level relative to vehicle None median (RAW 264.7 cells [2]; [3]): 0.91 (0.49–1.15)
PGD2 level relative to vehicle None median (RAW 264.7 cells [2]; [3]): 3.14 (1.51–4.13)
SEA level relative to vehicle None median (RAW 264.7 cells [2]; [3]): 0.86 (0.65–1.11)
Effect on levels of AEA and related N-acylethanolamines in the cells (RAW 264.7 cells [2]; LPS + INF-γ-treated, ionomycin (5 μM) treated cells, URB597 1 μM, flurbiprofen and (R)-Flu-AM1 10 μM): did not affect
2-AG level relative to vehicle None median (RAW 264.7 cells [2]; [4]): 0.94 (0.62–1.52)
9,10,13-TriHOME level relative to vehicle None median (RAW 264.7 cells [2]; [4]): 1.04 (0.81–1.41)
9,10-DiHOME level relative to vehicle None median (RAW 264.7 cells [2]; [4]): 1.05 (0.64–1.66)
9,12,13-TriHOME level relative to vehicle None median (RAW 264.7 cells [2]; [4]): 1.08 (0.76–1.57)
9-HODE level relative to vehicle None median (RAW 264.7 cells [2]; [4]): 0.99 (0.66–2.11)
11-HETE level relative to vehicle None median (RAW 264.7 cells [2]; [4]): 0.55 (0.12–2.43)
12(13)-EpOME level relative to vehicle None median (RAW 264.7 cells [2]; [4]): 1.03 (0.51–5.45)
12(S)-HEPE level relative to vehicle None median (RAW 264.7 cells [2]; [4]): 0.90 (0.17–1.43)
12,13-DiHOME level relative to vehicle None median (RAW 264.7 cells [2]; [4]): 1.12 (0.73–1.53)
12-HETE level relative to vehicle None median (RAW 264.7 cells [2]; [4]): 0.94 (0.27–1.82)
13-HODE level relative to vehicle None median (RAW 264.7 cells [2]; [4]): 0.97 (0.71–2.66)
13-oxo-ODE level relative to vehicle None median (RAW 264.7 cells [2]; [4]): 1.97(0.59–3.00)
15-HETE level relative to vehicle None median (RAW 264.7 cells [2]; [4]): 1.37 (0–2.72)
AEA level relative to vehicle None median (RAW 264.7 cells [2]; [4]): 0.65 (0.39–0.86)
LEA level relative to vehicle None median (RAW 264.7 cells [2]; [4]): 1.07 (0.21–1.26)
OEA level relative to vehicle None median (RAW 264.7 cells [2]; [4]): 1.01 (0.79–1.11)
PEA level relative to vehicle None median (RAW 264.7 cells [2]; [4]): 0.89 (0.74–1.06)
PGD2 level relative to vehicle None median (RAW 264.7 cells [2]; [4]): 0 (0–0.25)
PGE2 level relative to vehicle None median (RAW 264.7 cells [2]; [4]): 0 (0–0.25)
SEA level relative to vehicle None median (RAW 264.7 cells [2]; [4]): 0.90 (0.52–1.02)
IC50 (mouse brain FAAH; 0.5 μM [3H]AEA, read-out: IC50 inhibition of [3H]AEA hydrolysis in mouse brain homogenates): 8.8 µM
Ki (mouse brain FAAH; Dixon replot of mean kinetic data, 1–8 μM [3H]AEA, read-out: Ki FAAH (Dixon plot)): 19 µM
Mode of FAAH inhibition (mouse brain FAAH; kinetic experiments, 1–8 μM [3H]AEA): competitive inhibitor
Ki (mouse brain FAAH; kinetic experiments, 1–8 μM [3H]AEA, read-out: Ki FAAH (competitive model fit)): 20 ± 8 µM
